From article PMC9346089 (The FEBS journal, 2022)

What was measured:
Settings in all cases: 5 uM vitamin K epoxide in medium; HEK293 VKORC1/VKORL1 knockout
S3-TM5/Trx = assay: cell-based gamma-carboxylation reporter; parameters: species or system Synechococcus sp. JA-2-3B'a(2-13)
M1 = system: M1
S3 = assay: cell-based gamma-carboxylation reporter; parameters: species or system Synechococcus sp. JA-2-3B'a(2-13)
M2 = system: M2

SMILES: CC(=O)CC(c1ccccc1)c1c(O)c2ccccc2oc1=O (stereo not shown) [warfarin]
- IC50 (S3-TM5/Trx): 1.11 µM
- IC50 (M1): 0.4 µM
- IC50 (S3): 0.19 µM
- IC50 (M2): 1.87 µM
